In data set [1] the test system is Escherichia coli ATCC 25922. As to the kind of experiment: microbe, parasite or virus in culture. Format: cell-based. The conditions noted are these: for EC50 / EC90: Escherichia coli, ATCC25922, no enzyme.
Data set [2] relates to Escherichia coli ATCC 25922. As to the kind of experiment: Microbroth dilution: EC50 of ampicillin and ceftriaxone in absence and presence of P1A. Format: cell-based. The following applies: Escherichia coli, ATCC25922, P1A 0, read-out: Ampiellin EC50. The procedure: (§1) Escherichia coli strain 25922 was cultured from glycerol stocks to logarithmic growth in cation adjusted Mueller-Hinton broth at 37° C. in an atmospheric environment and diluted in cation adjusted Mueller-Hinton broth to achieve a starting in well concentration of 5×10^5 CFU/mL. Serial 2-fold dilution of antimicrobial compounds were prepared in cation adjusted Mueller-Hinton broth to achieve final in well concentration of 128 μg/mL to 0.13 μg/mL for ampicillin and 4 μg/mL 4 ng/mL in the absence or presence of serial 10-fold dilutions of P1A, P3A, or P4A β-lactamase standard, 5 pg/mL to 50 ng/mL for ampicillin and […] to 500 ng/mL for ceftriaxone, ceftazidime, meropenem, cefepime, cefazolin, amp/sulbactam, cefoperazone, cefotaxime, and cefuroxime. Antibiotics were either added to the P1A and incubated for 30 min at 37° C. (pre-incubation) prior to addition of bacteria, or added to the plates following the addition of P1A, P3A, P4A, and bacteria (simultaneous). All concentrations and combinations were evaluated in triplicate in a 96-well plate format that contained media only, compound plus media only (colorimetric control), and untreated bacterial controls.
The 50% effective inhibitory concentration (EC50) of ampicillin and ceftriaxone against Escherichia coli was determined in the absence and presence of P1A β-lactamase. For the purposes of these studies, the stated effective concentration was the initial concentration of ampicillin or ceftriaxone added at the beginning of the experiment, and not a concentration measured during the course of the experiment or at the end of the incubation period.
Antibiotics were either added to the P1A and incubated for 30 min at 37° C. (Pre-incubation) prior to addition of bacteria, or added to the plates following the addition of P1A and bacteria (Simultaneous). All concentrations and combinations were evaluated in triplicate in a 96-well plate format. Following overnight incubation, the 0D625 of the plates was measured in a Spectramax 384 plate reader and the data were imported into a customized Excel spreadsheet for the determination of the 50% effective inhibitory concentration at (EC50) by linear regression analysis. For the purposes of these studies, the stated effective concentration is the initial concentration of ampicillin or ceftriaxone added at the beginning of the experiment, and not a concentration measured during the course of the experiment or at the end of the incubation period.
Antibiotics were either added to the P1A and incubated for 30 min at 37° C. (Pre-incubation) prior to addition of bacteria, or added to the plates following the addition of P1A and bacteria (Simultaneous). All concentrations and combinations were evaluated in triplicate in a 96-well plate format. Following overnight incubation, the OD625 of the plates was measured in a Spectramax 384 plate reader and the data were imported into a customized Excel spreadsheet for the determination of the 50% effective inhibitory concentration (EC50).
Antibiotics were added to the P1A bacteria (Simultaneous). All concentrations and combinations were evaluated in triplicate in a 96-well plate format. Following overnight incubation, the OD625 of the plates was measured in a Spectramax 384 plate reader and the data were imported into a customized Excel spreadsheet for the determination of the 50% effective inhibitory concentration at (EC50) by linear regression analysis.
(In general: Dilution methods test growth across graded concentrations, often in twofold steps.)

Data set [3] has as its system Escherichia coli ATCC 25922. As to the kind of experiment: microbe, parasite or virus in culture. The following applies: for EC90: Escherichia coli, ATCC25922, no enzyme. The data set is classed as cell-based. The protocol: as §1
Next, the 90% effective inhibitory concentration (EC90) of ampicillin, ceftriaxone, ceftazidime, meropenem, cefepime, cefazolin, amp/sulbactam, cefoperazone, cefotaxime, and cefuroxime against Escherichia coli was determined in the absence and presence of P1A, P3A, or P4A β-lactamase. For the purposes of these studies, the stated effective concentration was the initial concentration of ampicillin, ceftriaxone, ceftazidime, meropenem, cefepime, cefazolin, amp/sulbactam, cefoperazone, cefotaxime, and cefuroxime added at the beginning of the experiment, and not a concentration measured during the course of the experiment or at the end of the incubation period.
Specifically, the assay was performed by diluting (2-fold steps) the chosen antibiotic across the rows of a 96 well dish. The MIC was determined as the point at which the diluted antibiotic transitions from killing to not killing the bacteria (in this case, an E. coli strain that is sensitive to all antibiotics). P1A, P3A, and P4A were diluted (10 fold steps) down the columns (the β-lactamase concentrations increased down the columns). […] The latter point was used as the cut-off point. […] However, for this assay, the absolute MIC is not the most important parameter. The most relevant readout was the β-lactamase concentration at which the apparent MIC increases to the maximum amount of antibiotic tested.
E coli 29522 was incubated overnight in the presence of serial dilutions of antibiotic and the indicated amounts of β-lactamase protein from cell culture supernatants in a 96 well plate. Bacterial density (OD625) of the cultures was measured and the concentration at which the density was reduced by 90% relative to an untreated bacterial control (EC90) was determined. The assay was performed on two separate days and the data reported as Rep1 and Rep2. NA=not assayed.
E coli 29522 was incubated overnight in the presence of serial dilutions of antibiotic and the indicated amounts of β-lactamase protein from cell culture supernatants in a 96 well plate. Bacterial density (OD625) of the cultures was measured and the concentration at which the density was reduced by 90% relative to an untreated bacterial control (EC90) was determined.

The nature of data set [4]: Preliminary enzymatic activity of P1A mutants from B. subtilis supernatants. The data set is classed as biochemical. The conditions noted are these: B. subtilis supernatant, one substrate concentration. The protocol:
β-lactamase activity of the mutants was further characterised from E. coli cell lysates and B. subtilis growth supernatant with ampicillin, cefotaxime, ceftriaxone, cefuroxime, ceftazidime, meropenem and imipenem. The activities were determined using only one substrate concentration of each antibiotic tested. Selection of the antibiotic concentration was done with the antibiotic concentration as high as was practical, [S]>>Km. Based on these preliminary experiments, more accurate kinetic parameters were determined for a couple of mutants from both the site-directed and the random mutagenesis research lines. All the mutant enzymes selected for more detailed study were expressed in the B. subtilis host strain RS303. The cells carrying the mutated proteins were grown in minimal medium over-night after which the cells were harvested and the supernatant was concentrated in 1:10 with Amicon Ultra-4 centrifugal devices, MWCO 10000 (Amicon). Protein concentration in each culture supernatant was estimated from 12% SDS-PAGE (Criterion XT Bis-Tris, BioRad, Calif., USA) using the P1A reference material A18K31 as a standard. Kinetic parameters were measured for cefotaxime, ceftriaxone and cefuroxime for each selected mutant strain. The site-directed mutants were designed to hydrolyze cefotaxime and random mutants were screened with ceftriaxone, which made these antibiotics natural choices for determining kinetic parameters.

Setting [5] is: no enzyme, 2nd value, high test 2 μg/mL.

In brackets after ≈: the same amount, converted by molar mass. Read-outs that look alike come from different tables or passages of the source.

As usually defined, the EC50 is the concentration at which the effect is half-maximal. As for `CC1(C)S[C@@H]2[C@H](NC(=O)[C@H](N)c3ccccc3)C(=O)N2[C@H]1C(=O)O` [Ampicillin], the 50% effective concentration (EC50) turned out to be 2 µg/mL (≈ 5.72 µM) in data set [1] (Rep 1, Table 15, read-out: Ampiellin EC50); 4 µg/mL (≈ 11.4 µM) in data set [1] (Rep 2, Table 15, read-out: Ampiellin EC50); 16 µg/mL in data set [2] (pre-incubation, Table 12); 16 µg/mL in data set [2] (pre-incubation, Table 13); 16 µg/mL in data set [2] (simultaneous, Table 12); 16 µg/mL in data set [2] (simultaneous, Table 13). In addition, the EC50 in data set [2] (simultaneous, Table 14 repeat analysis) came to 16 µg/mL.

As usually defined, the EC90 is the point of the concentration-response curve where the effect stands at 90%. For the molecule `Cc1nnc(SCC2=C(C(=O)O)N3C(=O)[C@@H](NC(=O)Cn4cnnn4)[C@H]3SC2)s1` [Cefazolin], the EC90 is 2 µg/mL (≈ 4.4 µM) in data set [1] (1st value, high test 64 μg/mL, read-out: Cefazolin EC90) and 2 µg/mL (≈ 4.4 µM) in data set [1] (2nd value, high test 64 μg/mL, read-out: Cefazolin EC90).

Regarding `CO/N=C(\C(=O)N[C@@H]1C(=O)N2C(C(=O)[O-])=C(C[N+]3(C)CCCC3)CS[C@H]12)c1csc(N)n1` [Cefepime], the EC50 in data set [1] (1st value, high test 2 μg/mL, read-out: Cefepime EC50) turned out to be 0.06 µg/mL (≈ 0.125 µM); in data set [1] (2nd value, high test 2 μg/mL, read-out: Cefepime EC50), 0.03 µg/mL (≈ 0.0624 µM). Moreover, the “Cefepime EC50” value in data set [1] (setting [5]) is listed as 0.03/0.03 μg/mL.

`CCN1CCN(C(=O)N[C@@H](C(=O)N[C@@H]2C(=O)N3C(C(=O)O)=C(CSc4nnnn4C)CS[C@H]23)c2ccc(O)cc2)C(=O)C1=O` [Cefoperazone]: the EC90 stood at 0.25 µg/mL (≈ 0.387 µM) in data set [1] (1st value, high test 8 μg/mL, read-out: Cefoperazone EC90) and 0.13 µg/mL (≈ 0.201 µM) in data set [1] (2nd value, high test 8 μg/mL, read-out: Cefoperazone EC90). The “Cefoperazone EC90” value in data set [1] (no enzyme, 2nd value, high test 8 μg/mL) is given as 0.25/0.25 μg/mL; in data set [3] (no enzyme, 1st value, high test 8 μg/mL), 0.25/0.25 μg/mL.

Turning to `CO/N=C(\C(=O)N[C@@H]1C(=O)N2C(C(=O)O)=C(COC(C)=O)CS[C@H]12)c1csc(N)n1` [Cefotaxime], the EC90 in data set [1] (1st value, high test 2 μg/mL, read-out: Cefotaxime EC90) amounted to 0.004 µg/mL (≈ 0.00878 µM); in data set [3] (2nd value, high test 2 μg/mL, read-out: Cefotaxime EC90) it was 0.008 µg/mL. For the same molecule, the “Cefotaxime EC90” value in data set [1] (no enzyme, 1st value, high test 2 μg/mL) is 0.004/0.004 μg/mL; in data set [1] (setting [5]), 0.004/0.004 μg/mL.

For the molecule `CC(C)(O/N=C(\C(=O)N[C@@H]1C(=O)N2C(C(=O)[O-])=C(C[n+]3ccccc3)CS[C@H]12)c1csc(N)n1)C(=O)O` [Ceftazidime], the EC50 in data set [1] (1st value, high test 4 μg/mL, read-out: Ceftazidime EC50) worked out at 0.13 µg/mL (≈ 0.238 µM). Further, the “Ceftazidime EC50” value in data set [1] (no enzyme, 1st value, high test 4 μg/mL) is 0.13/0.13 μg/mL; in data set [1] (no enzyme, 2nd value, high test 4 μg/mL) it was 0.5 µg/mL.

`CO/N=C(\C(=O)N[C@@H]1C(=O)N2C(C(=O)O)=C(COC(N)=O)CS[C@H]12)c1ccco1` [Cefuroxime]: the EC90 in data set [1] (2nd value, high test 128 μg/mL, read-out: Cefuroxime EC90) amounted to 4 µg/mL (≈ 9.43 µM); in data set [3] (1st value, high test 128 μg/mL, read-out: Cefuroxime EC90) it was 4 µg/mL. In addition, the “Cefuroxime EC90” value was found to be 2.0 µg/mL in data set [1] (no enzyme, 2nd value, high test 128 μg/mL) and 2.0 µg/mL in data set [3] (no enzyme, 1st value, high test 128 μg/mL).

As to `C[C@@H](O)[C@H]1C(=O)N2C(C(=O)O)=C(S[C@@H]3CN[C@H](C(=O)N(C)C)C3)[C@H](C)[C@H]12` [Meropenem], the EC50 in data set [1] (1st value, high test 1 μg/mL, read-out: Meropenem EC50) was found to be 0.06 µg/mL (≈ 0.156 µM); in data set [1] (2nd value, high test 1 μg/mL, read-out: Meropenem EC50), 0.06 µg/mL (≈ 0.156 µM). In data set [1] (no enzyme, 2nd value, high test 1 μg/mL), the “Meropenem EC50” value is 0.03 µg/mL.

Consider IS203: P1A with T160F, for which, in data set [4], the “AMP = ampicillin enzymatic activity” value is recorded as 0.01 multiples of P1A, the “CAZ = ceftazidime enzymatic activity” value was 0.13 multiples of P1A, the “CRO = ceftriaxone enzymatic activity” value is on record as 0.00 multiples of P1A and the “CTX = cefotaxime enzymatic activity” value is 0.01 multiples of P1A. Besides, the “CXM = cefuroxime enzymatic activity” value in data set [4] was 0.00 multiples of P1A.

The values are drawn from patent US9464280B1, “Beta-lactamases with improved properties for therapy” (priority 2014, dated 2016).
